Experiments:
[1] = Pharmacokinetic analysis in male rats, oral gavage; format: in vivo; conditions: CD IGS (Sprague-Dawley derived), rat, plasma, orally at 3 mg/kg, compounds administered in combination
Description: This study, performed in male rats with test compounds (Compound 303 and Compound 316), was designed to provide preliminary information on their pharmacokinetics. The test compounds were administered in combination by oral gavage.
The specifications for rats used on this study are as follows: • Strain: CD® IGS rats (Sprague-Dawley derived) • Source: Charles River Laboratories • Surgical modification for oral dosing: One portal vein cannula and one jugular vein cannula • Body weight range at dosing 350 to 375 g
The rats were acclimatized to laboratory conditions for at least 24 hours before dosing. The evening before dosing, food was withheld from the rats and was returned immediately following the 3-hour blood collection time point. Water was provided ad libitum. The rats were housed individually in translucent polycarbonate cages.
Test compounds were prepared as 3.0 mg/ml solutions (1% MC/0.4% Cr EL in WFI).
Rats were administered a single dose of test compound in combination by oral gavage. Dose volumes were adjusted based on body weight data collected immediately prior to dosing.
The dose volume was 1 ml/kg and the nominal dosage was 3 mg/kg.
Blood samples were collected at 5 minutes, 20 minutes, 1 hour, 3 hours, 6 hours, 9 hours, and 24 hours post-dosing from orally dosed rats. The samples were collected into plasma separator Microtainer tubes with anticoagulant (lithium heparin). Plasma samples were prepared by centrifugation (5 min at 5000×g), and at least 100 μL were transferred to storage tubes and frozen on dry ice. Samples were maintained at approximately −75 C until prepared for analysis.
Plasma samples were thawed and 75 uL aliquots were transferred to centrifuge tubes to which 10 μL aliquots of internal standard solution (0.5 μg/mL) were added. The samples were not diluted with blank plasma prior to further processing. Soluble proteins were precipitated by the addition of 300 μL of methanol, followed by centrifugation (20 min at 16,000×g). The samples were evaporated to dryness and reconstituted in 100 μL of water containing 0.2% formic acid and 10% methanol. All samples were loaded onto an autosampler maintained at 6° C. and evaluated for concentrations of test compound using LC-MS/MS. lasma concentration data were evaluated using the computer program WinNonlin (Professional Edition, Pharsight Corporation, version 5.01). […]
Pan HDAC inhibitor 3-((dimethylamino)methyl)-N-(2-(4-(hydroxycarbamoyl)phenoxy)ethyl)benzofuran-2-carboxamide was added to the cassette to serve as a standard since the pharmacokinetics of this compound have been determined previously in rats. The UC's determined for rats administered Compound 303 and Compound 316 orally at 3 mg/kg were 1.42, and 5.36 μg·h/mL, respectively. […]

[2] = system: Jurkat cells; experiment: Cell proliferation assay, growth inhibition by Alamar Blue; format: cell-based; conditions: Homo sapiens, 72 h, Jurkat cells treated with compound for 3 days
Description: Cell lines were obtained from DSMZ (Braunschweig, Germany) or ATCC (Manassas, Va.). Cells were grown in RPMI 1640 with 10% fetal bovine serum in a 5% CO2/air incubator at 37° C. Thapsigargin and BAPTA-AM were from Calbiochem (San Diego, Calif.). 3-((dimethylamino)methyl)-N-(2-(4-(hydroxycarbamoyl)phenoxy)ethyl)benzofuran-2-carboxamide is a broad-spectrum HDAC inhibitor which was synthesized as previously described. Other analogs with varying degrees of specificity towards the HDAC isoforms were synthesized as described herein.
Tumor cell lines and human umbilical vein endothelial cells (HUVEC) were cultured for at least two doubling times, and growth was monitored at the end of compound exposure using an Alamar Blue™ (Biosource, Camarillo, Calif.) fluorometric cell proliferation assay as recommended by the manufacturer. Compounds were assayed in triplicate wells in 96-well plates. The concentration required to inhibit cell growth by 50% (GI50) and 95% confidence intervals were estimated from nonlinear regression using a 4-parameter logistic equation. The effect of HDAC8 selective inhibitor compounds on cell proliferation in Jurkat cells was measured. Apoptosis was measured by Annexin-V flow cytommetry. Growth inhibition was measured by Alamar Blue assay. Cells were treated with compound for 3 days.

- AUC [1]: 5360 ng·h/mL
- Cmax [1]: 828 ng/mL
- GI50 [2]: 2800 nM
Structure (SMILES): O=C(NO)c1ccc2ccn(CCOc3ccccc3)c2c1 [Compound 316, N-hydroxy-1-(2-phenoxyethyl)-1H-indole-6-carboxamide]
